Experimental data: ChEMBL document CHEMBL1122256, “Novel tetracyclic spiropiperidines. 3. 1-arylspiro[indoline-3,4'-piperidine]s as potential antidepressants” (J Med Chem, 1983)

Assays:
Mus musculus [1] = test: Inhibition of tetrabenazine ptosis in mice following i.p. administration.; type: functional; conditions: ip
Rattus norvegicus [2] = test: Potentiation of head twitching induced by 5-HTP in pargyline-pretreated rats following i.p. administration.; type: functional; conditions: ip
Mus musculus [3] = test: Antidepressant activity by tetrabenazine ptosis prevention in mice after oral administration
Rattus norvegicus [4] = test: In vivo antidepressant activity against muricide in rat after intraperitoneal administration; type: functional; conditions: ip
Mus musculus [5] = test: In vivo antidepressant activity measured by yohimbine toxicity potentiation in mouse after intraperitoneal administration; type: functional; conditions: ip
Mus musculus [6] = test: In vivo antidepressant activity by tetrabenazine ptosis prevention in mice after oral administration; type: functional
Mus musculus [7] = test: In vivo antidepressant activity by tetrabenazine ptosis prevention in mice after intraperitoneal administration; type: functional; conditions: ip
Rattus norvegicus [8] = test: In vivo antidepressant activity measured by potentiation of head twitching induced by 5-HTP in pargyline-pretreated rats after intraperitoneal administration; type: functional; conditions: ip
Rattus norvegicus [9] = organism: Rattus norvegicus; test: In vitro inhibition of neuronal uptake against serotonin in rat whole brain; type: functional
Mus musculus [10] = test: Antidepressant activity by tetrabenazine ptosis prevention in mouse after oral administration; type: functional
[11] = test system: Monoamine oxidase (Rattus norvegicus); test: In vitro inhibition of MAO against mitochondrial preparation in rat whole brain
Rattus norvegicus [12] = organism: Rattus norvegicus; test: In vitro inhibition of neuronal uptake against dopamine in rat striatum; type: functional
Rattus norvegicus [13] = organism: Rattus norvegicus; test: In vitro inhibition of neuronal uptake against norepinephrine in rat whole brain; type: functional
Mus musculus [14] = test: In vivo antidepressant activity by tetrabenazine ptosis prevention in mouse after intraperitoneal administration; conditions: ip
Mus musculus [15] = test: Antidepressant activity by tetrabenazine ptosis prevention in mice after peroral administration; type: functional; conditions: po
Mus musculus [16] = test: Antidepressant activity by tetrabenazine ptosis prevention in mice after intraperitoneal administration; conditions: ip
Rattus norvegicus [17] = test: Antidepressant activity measured by potentiation of head twitching induced by 5-HTP in pargyline-pretreated rats after intraperitoneal administered; type: functional; conditions: ip
Mus musculus [18] = test: Antidepressant activity by tetrabenazine ptosis prevention in mice after oral administration; type: functional
Mus musculus [19] = test: Antidepressant activity by tetrabenazine ptosis prevention in mice after intraperitoneal administration; d = All animals died after tetrabenazine dosing; type: functional, organism-based

SMILES: Cl.Nc1ccccc1N1CC2(CCNCC2)c2ccccc21
- ED50 (Mus musculus [1]): > 20 mg/kg
- ED50 (Rattus norvegicus [2]): > 10 mg/kg

SMILES: c1ccc(C2OC3(CCNCC3)c3ccccc32)cc1 (configuration not stated)
- ED50 (Mus musculus [1]): 0.5 mg/kg
- ED50 (Mus musculus [3]): 1 mg/kg
- ED50 (Rattus norvegicus [2]): 1.9 mg/kg

SMILES: Cl.Cl.Nc1ccccc1N1CC2(CCNCC2)c2ccc(Cl)cc21
- ED50 (Mus musculus [1]): > 20 mg/kg
- ED50 (Rattus norvegicus [2]): > 10 mg/kg

SMILES: CN1CCC2(CC1)CN(c1ccc(Cl)cc1)c1ccccc12
- ED50 (Mus musculus [1]): > 20 mg/kg
- ED50 (Rattus norvegicus [2]): > 10 mg/kg

SMILES: CN(C)CCC=C1c2ccccc2CCc2ccccc21 [AMITRIPTYLINE]
- ED50 (Rattus norvegicus [4]): 22.6 mg/kg
- ED50 (Mus musculus [5]): 8 mg/kg
- ED50 (Mus musculus [6]): 1.94 mg/kg
- ED50 (Mus musculus [7]): 1.5 mg/kg
- ED50 (Rattus norvegicus [8]): 7.1 mg/kg

SMILES: Clc1ccccc1N1CC2(CCNCC2)c2ccccc21.O=C(O)/C=C\C(=O)O
- IC50 (Rattus norvegicus [9]): 1.7 µM
- ED50 (Mus musculus [10]): 0.37 mg/kg
- IC50 [11]: 160 µM
- ED50 (Rattus norvegicus [4]): 4.9 mg/kg
- ED50 (Mus musculus [5]): 1.6 mg/kg
- IC50 (Rattus norvegicus [12]): 8 µM
- IC50 (Rattus norvegicus [13]): 6.5 µM
- ED50 (Rattus norvegicus [8]): 4.7 mg/kg
- ED50 (Mus musculus [14]): 1.2 mg/kg

SMILES: CN1CCC2(CC1)CN(c1ccccc1)c1ccccc12
- ED50 (Mus musculus [1]): > 20 mg/kg
- ED50 (Rattus norvegicus [2]): > 10 mg/kg

SMILES: CNCCCN1c2ccccc2CCc2ccccc21 [DESIPRAMINE]
- ED50 (Mus musculus [1]): 0.8 mg/kg
- ED50 (Mus musculus [3]): 1.6 mg/kg
- ED50 (Rattus norvegicus [2]): > 10 mg/kg

SMILES: CN1CCC2(CC1)CN(c1ccccc1N)c1cc(Cl)ccc12.Cl.Cl
- ED50 (Mus musculus [1]): > 20 mg/kg
- ED50 (Rattus norvegicus [2]): > 10 mg/kg

SMILES: CN1CCC2(CC1)CN(c1ccccc1F)c1ccccc12.O=C(O)/C=C\C(=O)O
- ED50 (Mus musculus [1]): 15.2 mg/kg
- ED50 (Rattus norvegicus [2]): > 10 mg/kg

SMILES: CN1CCC2(CC1)CN(c1ccccc1[N+](=O)[O-])c1ccccc12
- ED50 (Mus musculus [15]): 8.4 mg/kg
- ED50 (Mus musculus [16]): 4 mg/kg
- ED50 (Rattus norvegicus [2]): > 10 mg/kg

SMILES: CN1CCC2(CC1)CN(c1ccccc1Cl)c1cc(Cl)ccc12.O=C(O)/C=C\C(=O)O
- ED50 (Mus musculus [1]): 2.6 mg/kg
- ED50 (Rattus norvegicus [2]): > 10 mg/kg

SMILES: Fc1ccccc1N1CC2(CCNCC2)c2ccc(Cl)cc21.O=C(O)/C=C\C(=O)O
- ED50 (Mus musculus [1]): > 8 mg/kg
- ED50 (Rattus norvegicus [2]): > 10 mg/kg

SMILES: CN1CCC2(CC1)CN(c1ccccc1C(F)(F)F)c1cc(Cl)ccc12.O=C(O)/C=C\C(=O)O
- ED50 (Mus musculus [1]): > 8 mg/kg
- ED50 (Rattus norvegicus [2]): > 10 mg/kg

SMILES: CN1CCC2(CC1)CN(c1ccccc1F)c1cc(Cl)ccc12.O=C(O)/C=C\C(=O)O
- ED50 (Mus musculus [1]): 11 mg/kg
- ED50 (Rattus norvegicus [2]): > 10 mg/kg

SMILES: Br.CN1CCC2(CC1)CN(c1ccc(F)cc1)c1ccccc12
- ED50 (Mus musculus [1]): > 20 mg/kg
- ED50 (Rattus norvegicus [17]): > 10 mg/kg
- ED50 (Mus musculus [16]): > 20 mg/kg

SMILES: Br.CN1CCC2(CC1)CN(c1ccccn1)c1ccccc12
- ED50 (Mus musculus [1]): > 20 mg/kg
- ED50 (Rattus norvegicus [2]): > 10 mg/kg

SMILES: Fc1ccc(N2CC3(CCNCC3)c3ccccc32)cc1.O=C(O)/C=C\C(=O)O
- ED50 (Mus musculus [1]): > 20 mg/kg
- ED50 (Mus musculus [16]): > 20 mg/kg
- ED50 (Rattus norvegicus [2]): > 10 mg/kg

SMILES: CN1CCC2(CC1)CN(c1ccccc1N)c1ccccc12.Cl
- ED50 (Mus musculus [1]): 4 mg/kg
- ED50 (Rattus norvegicus [2]): > 10 mg/kg

SMILES: CN1CCC2(CC1)CN(c1cccc(C(F)(F)F)c1)c1ccccc12
- ED50 (Mus musculus [1]): > 20 mg/kg
- ED50 (Rattus norvegicus [2]): > 10 mg/kg

SMILES: CN1CCC2(CC1)CN(c1ccccc1Cl)c1ccccc12.O=C(O)/C=C\C(=O)O
- ED50 (Mus musculus [18]): 3.2 mg/kg
- ED50 (Rattus norvegicus [2]): > 10 mg/kg

SMILES: CN1CCC2(CC1)CN(c1ccc(C(F)(F)F)cc1)c1ccccc12
- ED50 (Mus musculus [1]): > 20 mg/kg
- ED50 (Mus musculus [16]): > 20 mg/kg
- ED50 (Rattus norvegicus [2]): 7.8 mg/kg

SMILES: Cl.O=[N+]([O-])c1ccccc1N1CC2(CCNCC2)c2ccccc21
- ED50 (Mus musculus [19]): All animals died
- ED50 (Rattus norvegicus [2]): > 10 mg/kg
